Measured values as given in ChEMBL document CHEMBL1134111, “Nucleoside analogues as highly potent and selective inhibitors of herpes simplex virus thymidine kinase” (Bioorg Med Chem Lett, 2001).

Legend:
Thymidine kinase [1] = biological target: T1, Thymidine kinase (Human herpesvirus 2, UniProt Q6L709); assay: Inhibitory activity against HSV-2 Thymidine Kinase (HSV-2 TK)
T1 sequence (Q6L709 whole entry): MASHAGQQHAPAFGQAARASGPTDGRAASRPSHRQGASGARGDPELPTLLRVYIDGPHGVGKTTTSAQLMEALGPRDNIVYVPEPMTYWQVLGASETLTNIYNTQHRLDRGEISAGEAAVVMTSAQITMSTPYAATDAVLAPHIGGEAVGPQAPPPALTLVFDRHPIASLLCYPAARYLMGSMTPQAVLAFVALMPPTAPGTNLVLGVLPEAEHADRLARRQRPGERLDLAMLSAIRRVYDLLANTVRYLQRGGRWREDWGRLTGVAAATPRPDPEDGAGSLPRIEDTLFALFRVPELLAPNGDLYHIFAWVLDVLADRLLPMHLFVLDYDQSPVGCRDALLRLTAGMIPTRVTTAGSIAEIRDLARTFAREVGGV

Thymidine kinase [2] = biological target: T2, Thymidine kinase (Human herpesvirus 1 (strain SC16) (HHV-1) (Human herpes simplex virus1), UniProt P06479); assay: Inhibitory activity against HSV-1 Thymidine Kinase (HSV-1 TK)
T2 sequence (P06479 whole entry): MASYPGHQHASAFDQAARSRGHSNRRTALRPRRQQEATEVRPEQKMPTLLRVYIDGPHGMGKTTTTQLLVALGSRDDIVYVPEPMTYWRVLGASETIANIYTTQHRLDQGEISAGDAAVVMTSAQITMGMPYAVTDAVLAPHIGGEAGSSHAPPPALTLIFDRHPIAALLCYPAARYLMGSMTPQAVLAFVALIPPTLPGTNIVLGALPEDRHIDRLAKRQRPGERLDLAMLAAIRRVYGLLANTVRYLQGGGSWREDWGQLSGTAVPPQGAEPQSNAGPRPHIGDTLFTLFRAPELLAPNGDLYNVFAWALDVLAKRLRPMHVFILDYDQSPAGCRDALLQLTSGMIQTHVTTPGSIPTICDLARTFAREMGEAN

CCc1cn([C@H]2C[C@H](O)[C@@H](CNC(=O)C3c4ccccc4-c4ccccc43)O2)c(=O)[nH]c1=O
IC50 (Thymidine kinase [1]): 5.2 nM | IC50 (Thymidine kinase [2]): 28 nM

CCc1cn([C@H]2C[C@H](O)[C@@H](CNC(=O)C3c4ccccc4Sc4ccccc43)O2)c(=O)[nH]c1=O
IC50 (Thymidine kinase [1]): 1.4 nM | IC50 (Thymidine kinase [2]): 11.5 nM

CCc1cn([C@@H]2O[C@H](CNC(=O)C3c4ccccc4S(=O)(=O)c4c(Cl)cccc43)[C@@H](O)[C@@H]2F)c(=O)[nH]c1=O (some centres undefined)
IC50 (Thymidine kinase [1]): 0.09 nM | IC50 (Thymidine kinase [2]): 0.27 nM

CCc1cn([C@@H]2O[C@H](CNC(=O)C3c4ccccc4Oc4c(C)cccc43)[C@@H](O)[C@@H]2F)c(=O)[nH]c1=O (some centres undefined)
IC50 (Thymidine kinase [1]): 0.19 nM | IC50 (Thymidine kinase [2]): 1.6 nM

CCc1cn([C@@H]2O[C@H](CNC(=O)C3c4ccccc4S(=O)(=O)c4ccccc43)[C@@H](O)[C@@H]2F)c(=O)[nH]c1=O
IC50 (Thymidine kinase [1]): 0.11 nM | IC50 (Thymidine kinase [2]): 0.93 nM

CCc1cn([C@H]2C[C@H](O)[C@@H](CNC(=O)Cc3ccccc3Cl)O2)c(=O)[nH]c1=O
IC50 (Thymidine kinase [1]): 30 nM | IC50 (Thymidine kinase [2]): 100 nM

CCc1cn([C@@H]2O[C@H](CNC(=O)C3c4ccccc4Sc4c(Cl)cccc43)[C@@H](O)[C@@H]2F)c(=O)[nH]c1=O (some centres undefined)
IC50 (Thymidine kinase [1]): 0.21 nM | IC50 (Thymidine kinase [2]): 1.5 nM

CCc1cn([C@H]2C[C@H](O)[C@@H](CNC(=O)C3c4ccccc4N(C)c4ccccc43)O2)c(=O)[nH]c1=O
IC50 (Thymidine kinase [1]): 2.6 nM | IC50 (Thymidine kinase [2]): 23 nM

CCc1cn([C@H]2C[C@H](O)[C@@H](CNC(=O)Cc3ccccc3F)O2)c(=O)[nH]c1=O
IC50 (Thymidine kinase [1]): 140 nM | IC50 (Thymidine kinase [2]): 700 nM

CCc1cn([C@@H]2O[C@H](CNC(=O)C3c4cccc(C)c4Oc4c(C)cccc43)[C@@H](O)[C@@H]2F)c(=O)[nH]c1=O
IC50 (Thymidine kinase [1]): 0.43 nM | IC50 (Thymidine kinase [2]): 2.2 nM

CCc1cn([C@H]2C[C@H](O)[C@@H](CNC(=O)Cc3ccccc3C)O2)c(=O)[nH]c1=O
IC50 (Thymidine kinase [1]): 60 nM | IC50 (Thymidine kinase [2]): 200 nM

CCc1cn([C@H]2C[C@H](O)[C@@H](CNC(=O)Cc3c(C)cccc3C)O2)c(=O)[nH]c1=O
IC50 (Thymidine kinase [1]): 8.4 nM | IC50 (Thymidine kinase [2]): 40 nM

CCc1cn([C@H]2C[C@H](O)[C@@H](CNC(=O)c3c4ccccc4cc4ccccc34)O2)c(=O)[nH]c1=O
IC50 (Thymidine kinase [1]): 420 nM | IC50 (Thymidine kinase [2]): 1650 nM

CCc1cn([C@@H]2O[C@H](CNC(=O)C3c4ccccc4Oc4ccccc43)[C@@H](O)[C@@H]2F)c(=O)[nH]c1=O
IC50 (Thymidine kinase [1]): 0.11 nM | IC50 (Thymidine kinase [2]): 2.1 nM

CCc1cn([C@@H]2O[C@H](CNC(=O)C3c4ccccc4Oc4c(OC)cccc43)[C@@H](O)[C@@H]2F)c(=O)[nH]c1=O (some centres undefined)
IC50 (Thymidine kinase [1]): 0.21 nM | IC50 (Thymidine kinase [2]): 1.7 nM

CCc1cn([C@H]2C[C@H](O)[C@@H](CNC(=O)C3c4ccccc4S(=O)(=O)c4ccccc43)O2)c(=O)[nH]c1=O
IC50 (Thymidine kinase [1]): 0.13 nM | IC50 (Thymidine kinase [2]): 0.95 nM

CCc1cn([C@@H]2O[C@H](CNC(=O)[C@H](C)Oc3cc(OC)c(Cl)cc3Cl)[C@@H](O)[C@@H]2F)c(=O)[nH]c1=O
IC50 (Thymidine kinase [1]): 0.19 nM | IC50 (Thymidine kinase [2]): 1.8 nM

CCc1cn([C@@H]2O[C@H](CNC(=O)C3c4cccc(Cl)c4Oc4c(Cl)cccc43)[C@@H](O)[C@@H]2F)c(=O)[nH]c1=O
IC50 (Thymidine kinase [1]): 0.1 nM | IC50 (Thymidine kinase [2]): 0.3 nM

CCc1cn([C@H]2C[C@H](O)[C@@H](CNC(=O)Cc3ccccc3)O2)c(=O)[nH]c1=O
IC50 (Thymidine kinase [1]): 300 nM | IC50 (Thymidine kinase [2]): 1000 nM

CCc1cn([C@@H]2O[C@H](CNC(=O)C3c4ccccc4Oc4c(-c5ccccc5)cccc43)[C@@H](O)[C@@H]2F)c(=O)[nH]c1=O (some centres undefined)
IC50 (Thymidine kinase [1]): 0.14 nM | IC50 (Thymidine kinase [2]): 0.66 nM

CCc1cn([C@H]2C[C@H](O)[C@@H](CNC(=O)Cc3ccccc3OC)O2)c(=O)[nH]c1=O
IC50 (Thymidine kinase [1]): 70 nM | IC50 (Thymidine kinase [2]): 300 nM

CCc1cn([C@H]2C[C@H](O)[C@@H](CNC(=O)Cc3ccccc3C(F)(F)F)O2)c(=O)[nH]c1=O
IC50 (Thymidine kinase [1]): 90 nM | IC50 (Thymidine kinase [2]): 200 nM

CCc1cn([C@@H]2O[C@H](CNC(=O)C3c4ccccc4C(C(F)(F)F)(C(F)(F)F)c4ccccc43)[C@@H](O)[C@@H]2F)c(=O)[nH]c1=O
IC50 (Thymidine kinase [1]): 0.11 nM | IC50 (Thymidine kinase [2]): 0.19 nM

CCc1cn([C@@H]2O[C@H](CNC(=O)C3c4ccccc4Sc4ccccc43)[C@@H](O)[C@@H]2F)c(=O)[nH]c1=O
IC50 (Thymidine kinase [1]): 0.7 nM | IC50 (Thymidine kinase [2]): 8.5 nM

CCc1cn([C@H]2C[C@H](O)[C@@H](CNC(=O)C3c4ccccc4CCc4ccccc43)O2)c(=O)[nH]c1=O
IC50 (Thymidine kinase [1]): 44 nM | IC50 (Thymidine kinase [2]): 260 nM

CCc1cn([C@@H]2O[C@H](CNC(=O)C3c4ccccc4C(C)(C)c4ccccc43)[C@@H](O)[C@@H]2F)c(=O)[nH]c1=O
IC50 (Thymidine kinase [1]): 0.28 nM | IC50 (Thymidine kinase [2]): 1.5 nM

CCc1cn([C@H]2C[C@H](O)[C@@H](CNC(=O)Cc3ccccc3-c3ccccc3)O2)c(=O)[nH]c1=O
IC50 (Thymidine kinase [1]): 90 nM | IC50 (Thymidine kinase [2]): 240 nM

CCc1cn([C@@H]2O[C@H](CNC(=O)C3c4ccccc4Oc4c(Cl)cccc43)[C@@H](O)[C@@H]2F)c(=O)[nH]c1=O (some centres undefined)
IC50 (Thymidine kinase [1]): 0.14 nM | IC50 (Thymidine kinase [2]): 0.85 nM

CCc1cn([C@@H]2O[C@H](CNC(=O)C3c4ccccc4Oc4c3cccc4C(F)(F)F)[C@@H](O)[C@@H]2F)c(=O)[nH]c1=O (some centres undefined)
IC50 (Thymidine kinase [1]): 0.14 nM | IC50 (Thymidine kinase [2]): 1 nM

CCc1cn([C@H]2C[C@H](O)[C@@H](CNC(=O)C3c4ccccc4Cc4ccccc43)O2)c(=O)[nH]c1=O
IC50 (Thymidine kinase [1]): 1.2 nM | IC50 (Thymidine kinase [2]): 7 nM

CCc1cn([C@H]2C[C@H](O)[C@@H](CNC(=O)C3c4ccccc4Oc4ccccc43)O2)c(=O)[nH]c1=O
IC50 (Thymidine kinase [1]): 0.13 nM | IC50 (Thymidine kinase [2]): 2.9 nM

CCc1cn([C@H]2C[C@H](O)[C@@H](CNC(=O)Cc3c(Cl)cccc3Cl)O2)c(=O)[nH]c1=O
IC50 (Thymidine kinase [1]): 3.3 nM | IC50 (Thymidine kinase [2]): 1 nM
